Measurements reported in patent publication US6706748B2 (priority 2000, dated 2004).

Row | Compound | melting point
1 | COc1ccc(C(=O)CC(=O)c2snc(Cl)c2Cl)cc1 | 138 to 139 °C
2 | COc1ccc(S(=O)(=O)N(C(=O)c2snc(Cl)c2Cl)c2ccc(Cl)cc2)cc1 [Ia-68, N-(3,4-dichloro-5-isothiazolecarbonyl)-N-(4-chlorophenyl)-4-methoxybenzenesulfonamide] | 154 to 158 °C
3 | CCOCOc1ccc(C(=O)CC(=O)c2snc(Cl)c2Cl)cc1 [Ic-145, 1-(3,4-dichloro-5-isothiazolyl)-3-(4-ethoxymethoxyphenyl)-1,3-propanedione] | 174 °C
4 | O=C(CC(=O)c1snc(Cl)c1Cl)c1ccc(O)cc1 [Ic-148, 1-(3,4-dichloro-5-isothiazolyl)-3-(4-hydroxyphenyl)-1,3-propanedione] | 224 to 227 °C
5 | COC(=O)C(C#N)C(=O)c1snc(Cl)c1Cl (centres unmarked) [Ie-1, methyl 2-cyano-3-(3,4-dichloro-5-isothiazolyl)-3-oxopropanoate] | 119 to 122 °C
